Data from article PMC8696196 (RSC Advances, 2021).
Like-named read-outs stand apart in the source and are kept apart here.

Legend:
N5 (H12N5) neuraminidase = N5 (H12N5) neuraminidase (Influenza A virus, UniProt A1ILL9); assay: biochemical
H3N2 (A/Moscow/10/99) = assay: microbe, parasite or virus in culture; format: cell-based, influenza A virus; details: read-out: EC50 H3N2
[1] = test system: H1N1 (A/Puerto Rico/8/34); assay: microbe, parasite or virus in culture; format: cell-based, influenza A virus; details: read-out: EC50 H1N1
in vitro = details: dog
N2 (H3N2) neuraminidase = N2 (H3N2) neuraminidase (Influenza A virus, UniProt Q8AZ87); assay: biochemical

SMILES: CCC(CC)O[C@@H]1C=C(C(=O)O)C[C@H](n2nncc2-c2ccccc2N)[C@H]1NC(C)=O [Compound 2k, (3R,4R,5S)-4-Acetamido-5-[5-(2-aminophenyl)-1H-1,2,3-triazol-1-yl]-3-(pentan-3-yloxy)cyclohex-1-ene-1-carboxylic acid]
- IC50 (N5 (H12N5) neuraminidase): 410 ± 47 nM

SMILES: CCC(CC)O[C@@H]1C=C(C(=O)O)C[C@H](n2cc(-c3ccccc3)nn2)[C@H]1NC(C)=O [Compound 1e, (3R,4R,5S)-4-Acetamido-3-(pentan-3-yloxy)-5-(4-phenyl-1H-1,2,3-triazol-1-yl)cyclohex-1-ene-1-carboxylic acid]
- IC50 (N5 (H12N5) neuraminidase): 12900 ± 1570 nM

SMILES: CCC(CC)O[C@@H]1C=C(C(=O)O)C[C@H](N)[C@H]1NC(C)=O [OSC, oseltamivir carboxylate, reference compound]
- EC50 (H3N2 (A/Moscow/10/99)): 0.43 ± 0.08 µM
- IC50 (N5 (H12N5) neuraminidase): 0.94 ± 0.3 nM
- EC50 [1]: 0.25 ± 0.081 µM
- CC50 (in vitro): > 500 µM

SMILES: CCC(CC)O[C@@H]1C=C(C(=O)O)C[C@H](n2cc(-c3cccc(C(=O)O)c3)nn2)[C@H]1NC(C)=O [Compound 1g, (3R,4R,5S)-4-Acetamido-5-[4-(3-carboxyphenyl)-1H-1,2,3-triazol-1-yl]-3-(pentan-3-yloxy)cyclohex-1-ene-1-carboxylic acid]
- IC50 (N5 (H12N5) neuraminidase): 29500 ± 8000 nM

SMILES: CCC(CC)O[C@@H]1C=C(C(=O)O)C[C@H](n2nncc2-c2cccc(C(=O)O)c2)[C@H]1NC(C)=O [Compound 2g, (3R,4R,5S)-4-Acetamido-5-[5-(3-carboxyphenyl)-1H-1,2,3-triazol-1-yl]-3-(pentan-3-yloxy)cyclohex-1-ene-1-carboxylic acid]
- IC50 (N5 (H12N5) neuraminidase): 2040 ± 990 nM

SMILES: CCC(CC)O[C@@H]1C=C(C(=O)O)C[C@H](n2cc(COc3ccc(C[C@H](N)C(=O)O)cc3)nn2)[C@H]1NC(C)=O [Compound 1n, (3R,4R,5S)-4-Acetamido-5-{4-{[4-((S)-2-amino-2-carboxyethyl)phenoxy]methyl}-1H-1,2,3-triazol-1-yl}-3-(pentan-3-yloxy)cyclohex-1-ene-1-carboxylic acid]
- IC50 (N5 (H12N5) neuraminidase): 6950 ± 470 nM

SMILES: CCC(CC)O[C@@H]1C=C(C(=O)O)C[C@H](n2nncc2-c2ccc(C(=O)O)cc2)[C@H]1NC(C)=O [Compound 2f, (3R,4R,5S)-4-Acetamido-5-[5-(4-carboxyphenyl)-1H-1,2,3-triazol-1-yl]-3-(pentan-3-yloxy)cyclohex-1-ene-1-carboxylic acid]
- IC50 (N5 (H12N5) neuraminidase): 3920 ± 690 nM

SMILES: CCC(CC)O[C@@H]1C=C(C(=O)O)C[C@H](n2nncc2-c2ccc(N(CC)CC)cc2)[C@H]1NC(C)=O [Compound 2m, (3R,4R,5S)-4-Acetamido-5-[5-(4-diethylaminophenyl)-1H-1,2,3-triazol-1-yl]-3-(pentan-3-yloxy)cyclohex-1-ene-1-carboxylic acid]
- IC50 (N5 (H12N5) neuraminidase): > 100000 nM

SMILES: CCC(CC)O[C@@H]1C=C(C(=O)O)C[C@H](n2cc(-c3cccc(N)c3)nn2)[C@H]1NC(C)=O [Compound 1j, (3R,4R,5S)-4-Acetamido-5-[4-(3-aminophenyl)-1H-1,2,3-triazol-1-yl]-3-(pentan-3-yloxy)cyclohex-1-ene-1-carboxylic acid]
- IC50 (N5 (H12N5) neuraminidase): 3600 ± 820 nM

SMILES: CCC(CC)O[C@@H]1C=C(C(=O)O)C[C@H](n2nncc2COc2ccc(C[C@H](N)C(=O)O)cc2)[C@H]1NC(C)=O [Compound 2n, (3R,4R,5S)-4-Acetamido-5-{5-{[4-((S)-2-amino-2-carboxyethyl)phenoxy]methyl}-1H-1,2,3-triazol-1-yl}-3-(pentan-3-yloxy)cyclohex-1-ene-1-carboxylic acid]
- IC50 (N5 (H12N5) neuraminidase): 2430 ± 330 nM

SMILES: CCC(CC)O[C@@H]1C=C(C(=O)O)C[C@H](n2cc(-c3ccc(N(CC)CC)cc3)nn2)[C@H]1NC(C)=O [Compound 1m, (3R,4R,5S)-4-Acetamido-5-[4-(4-diethylaminophenyl)-1H-1,2,3-triazol-1-yl]-3-(pentan-3-yloxy)cyclohex-1-ene-1-carboxylic acid]
- IC50 (N5 (H12N5) neuraminidase): > 100000 nM

SMILES: CCC(CC)O[C@@H]1C=C(C(=O)O)C[C@H](n2cc(-c3ccc(Oc4ccccc4)cc3)nn2)[C@H]1NC(C)=O [Compound 1b, (3R,4R,5S)-4-Acetamido-3-(pentan-3-yloxy)-5-[4-(4-phenoxyphenyl)-1H-1,2,3-triazol-1-yl]cyclohex-1-ene-1-carboxylic acid]
- IC50 (N5 (H12N5) neuraminidase): > 100000 nM
- IC50 (N2 (H3N2) neuraminidase): > 100 µM

SMILES: CCC(CC)O[C@@H]1C=C(C(=O)O)C[C@H](n2cc(COc3ccc4ccccc4c3)nn2)[C@H]1NC(C)=O [Compound 1c, (3R,4R,5S)-4-Acetamido-5-[4-(2-naphthyloxy)methyl-1H-1,2,3-triazol-1-yl]-3-(pentan-3-yloxy)cyclohex-1-ene-1-carboxylic acid]
- IC50 (N5 (H12N5) neuraminidase): 1660 ± 250 nM
- IC50 (N2 (H3N2) neuraminidase): 3.8 ± 0.65 µM

SMILES: CCC(CC)O[C@@H]1C=C(C(=O)O)C[C@H](n2cc(-c3ccccc3C(=O)O)nn2)[C@H]1NC(C)=O [Compound 1h, (3R,4R,5S)-4-Acetamido-5-[4-(2-carboxyphenyl)-1H-1,2,3-triazol-1-yl]-3-(pentan-3-yloxy)cyclohex-1-ene-1-carboxylic acid]
- IC50 (N5 (H12N5) neuraminidase): 61200 ± 23700 nM

SMILES: CCC(CC)O[C@@H]1C=C(C(=O)O)C[C@H](n2cc(-c3ccc(C(=O)O)cc3)nn2)[C@H]1NC(C)=O [Compound 1f, (3R,4R,5S)-4-Acetamido-5-[4-(4-carboxyphenyl)-1H-1,2,3-triazol-1-yl]-3-(pentan-3-yloxy)cyclohex-1-ene-1-carboxylic acid]
- IC50 (N5 (H12N5) neuraminidase): 8140 ± 1120 nM

SMILES: CCC(CC)O[C@@H]1C=C(C(=O)O)C[C@H](n2cc(-c3ccc(N)cc3)nn2)[C@H]1NC(C)=O [Compound 1i, (3R,4R,5S)-4-Acetamido-5-[4-(4-aminophenyl)-1H-1,2,3-triazol-1-yl]-3-(pentan-3-yloxy)cyclohex-1-ene-1-carboxylic acid]
- IC50 (N5 (H12N5) neuraminidase): > 100000 nM

SMILES: CCC(CC)O[C@@H]1C=C(C(=O)O)C[C@H](n2nncc2-c2cccc(N)c2)[C@H]1NC(C)=O [Compound 2j, (3R,4R,5S)-4-Acetamido-5-[5-(3-aminophenyl)-1H-1,2,3-triazol-1-yl]-3-(pentan-3-yloxy)cyclohex-1-ene-1-carboxylic acid]
- EC50 (H3N2 (A/Moscow/10/99); Influenza A virus, H3N2, MDCK, 72 h): 7.65 ± 0.7 µM
- IC50 (N5 (H12N5) neuraminidase): 45 ± 16 nM
- EC50 ([1]; Influenza A virus, H1N1, MDCK, 72 h): 11.5 ± 2.69 µM
- CC50 (in vitro): > 500 µM

SMILES: CCC(CC)O[C@@H]1C=C(C(=O)O)C[C@H](n2nncc2-c2ccccc2C(=O)O)[C@H]1NC(C)=O [Compound 2h, (3R,4R,5S)-4-Acetamido-5-[5-(2-carboxyphenyl)-1H-1,2,3-triazol-1-yl]-3-(pentan-3-yloxy)cyclohex-1-ene-1-carboxylic acid]
- IC50 (N5 (H12N5) neuraminidase): 570 ± 130 nM

SMILES: CCC(CC)O[C@@H]1C=C(C(=O)O)C[C@H](n2cc(-c3ccc(-c4ccccc4)cc3)nn2)[C@H]1NC(C)=O [Compound 1a, (3R,4R,5S)-4-Acetamido-5-[4-(1,1′-biphenyl-4-yl)-1H-1,2,3-triazol-1-yl]-3-(pentan-3-yloxy)cyclohex-1-ene-1-carboxylic acid]
- IC50 (N5 (H12N5) neuraminidase): > 100000 nM
- IC50 (N2 (H3N2) neuraminidase): > 100 µM

SMILES: CCC(CC)O[C@@H]1C=C(C(=O)O)C[C@H](n2nncc2-c2ccc(N(C)C)cc2)[C@H]1NC(C)=O [Compound 2l, (3R,4R,5S)-4-Acetamido-5-[5-(4-dimethylaminophenyl)-1H-1,2,3-triazol-1-yl]-3-(pentan-3-yloxy)cyclohex-1-ene-1-carboxylic acid]
- IC50 (N5 (H12N5) neuraminidase): 140 ± 16 nM

SMILES: CCC(CC)O[C@@H]1C=C(C(=O)O)C[C@H](n2nncc2-c2ccccc2)[C@H]1NC(C)=O [Compound 2e, (3R,4R,5S)-4-Acetamido-3-(pentan-3-yloxy)-5-(5-phenyl-1H-1,2,3-triazol-1-yl)cyclohex-1-ene-1-carboxylic acid]
- IC50 (N5 (H12N5) neuraminidase): 5340 ± 450 nM

SMILES: CCC(CC)O[C@@H]1C=C(C(=O)O)C[C@H](n2cc(-c3ccccc3N)nn2)[C@H]1NC(C)=O [Compound 1k, (3R,4R,5S)-4-Acetamido-5-[4-(2-aminophenyl)-1H-1,2,3-triazol-1-yl]-3-(pentan-3-yloxy)cyclohex-1-ene-1-carboxylic acid]
- IC50 (N5 (H12N5) neuraminidase): 520 ± 130 nM

SMILES: CCC(CC)O[C@@H]1C=C(C(=O)O)C[C@H](n2cc(-c3ccc(C)cc3)nn2)[C@H]1NC(C)=O [Compound 1d, (3R,4R,5S)-4-Acetamido-5-[4-(4-methylphenyl)-1H-1,2,3-triazol-1-yl]-3-(pentan-3-yloxy)cyclohex-1-ene-1-carboxylic acid]
- IC50 (N5 (H12N5) neuraminidase): 2850 ± 1280 nM
- IC50 (N2 (H3N2) neuraminidase): 4.41 ± 1.11 µM

SMILES: CCC(CC)O[C@@H]1C=C(C(=O)O)C[C@H](n2cc(-c3ccc(N(C)C)cc3)nn2)[C@H]1NC(C)=O [Compound 1l, (3R,4R,5S)-4-Acetamido-5-[4-(4-dimethylaminophenyl)-1H-1,2,3-triazol-1-yl]-3-(pentan-3-yloxy)cyclohex-1-ene-1-carboxylic acid]
- IC50 (N5 (H12N5) neuraminidase): 740 ± 180 nM

SMILES: CCC(CC)O[C@@H]1C=C(C(=O)O)C[C@H](n2nncc2-c2ccc(N)cc2)[C@H]1NC(C)=O [Compound 2i, (3R,4R,5S)-4-Acetamido-5-[5-(4-aminophenyl)-1H-1,2,3-triazol-1-yl]-3-(pentan-3-yloxy)cyclohex-1-ene-1-carboxylic acid]
- IC50 (N5 (H12N5) neuraminidase): 250 ± 44 nM
